{"source": "patent US20110236501A1", "about": "“INJECTABLE DUAL DELIVERY ALLOGRAPH BONE/POLYMER COMPOSITE FOR TREATMENT OF OPEN FRACTURES” (Vanderbilt University, priority 2007, published 2011)", "key": {"[1]": {"assay": "In vitro release of vancomycin from PUR", "assay_type": "physicochemical", "procedure": "Methods: rhBMP-2 was purchased from R&D systems. V-FB was obtained by precipitation of vancomycin solution at pH 8. […] In vitro release experiment was carried out in PBS, with medium refreshed as indicated. […] The scaffolds were then tested in critical sized rat femoral segmental defects, contaminated or non-contaminated. After 4 or 8 weeks, the defects are harvested, and both the new bone formation and infection control were examined."}, "[2]": {"assay": "In vitro release of PDGF-BB (I-125 labeling and ELISA)", "assay_type": "physicochemical", "conditions": "for total release of PDGF-BB: PUR scaffold with 2 wt % glucose", "procedure": "To enhance the release of PDGF-BB, 2 wt % glucose was added to the scaffolds. The release profile was monitored by two methods. In the first approach, PDGF-BB was radiolabeled with iodine-125 (I-125) and a gamma reading machine was used to monitor the release kinetics. Release of PDGF-BB was also measured by ELISA assay using the liquid releasates. Both methods yield similar release profiles (FIG. 13), characterized by a burst release on the first day. The ELISA assay detected a lower total release (around 65%, compared with around 85% for I-125 labeling method), which is possibly due to denaturation of some fraction of the released protein which cannot be detected by its antibody.\nTo mitigate the burst release, another strategy was adopted to achieve controlled release of PDGF-BB from polyurethane scaffolds. Heparin was bound to the surface of microparticles made from amine-terminated PLGA (average size 50 μm) using standard carbodiimide techniques. PDGF-BB was then loaded onto the particle surface through heparin binding. […] To enhance the stability of the protein on the PLGA particle surface, the particles were granulated by mixing the particles with a small amount of gelatin solution followed by forcing through a 48-mesh sieve to form 110-μm granules. The granules were then added to the hardener component before reacting with isocyanate to form PUR/G-PDGF-BB polyurethane scaffolds. The PDGF-BB release from the granules is similar to that of particles when detected by I-125 labeling (FIG. 14A), but lower when measured by ELISA (FIG. 14B)."}, "MC3T3 cells": {"test_system": "MC3T3 cells", "assay": "In vitro cell proliferation assay of released PDGF-BB", "assay_type": "cell-based", "conditions": "released PDGF-BB vs fresh PDGF-BB", "procedure": "To assess the in vitro bioactivity of released PDGF-BB from the polyurethane scaffolds, releasates at day 1, 3, and 7 from PUR/PDGF-BB and PUR/G-PDGF-BB scaffolds were lyophilized and reconstituted to the same PDGF-BB concentration. After MC3T3 cells attached to the 96-well plates, the serum content in the cell culture medium was decreased from 10% to 2.5%. At the same time, the reconstituted releasates were added at dosages of 3 and 10 ng/ml. Fresh PDGF-BB (i.e., not released from the scaffolds but used directly as received from the supplier) was the positive control. Cell numbers were measured at time points of 24 and 72 h by staining the DNA and measuring fluorescence on a plate reader. […] At the 72 h time point, a dose-dependent effect was observed, although it was not evident at the 24 h time point."}, "S. aureus": {"test_system": "S. aureus", "conditions": "cited from earlier work"}, "[3]": {"assay": "Solubility of tobramycin in polyester polyol", "assay_type": "physicochemical", "procedure": "Tobramycin was added as a powder to the hardener prior to reaction with the triisocyanate resin in order to minimize its reactivity with the reactive two-component polyurethane. Tobramycin's five primary amino groups otherwise cause it to react rapidly with isocyanates when in solution. Tobramycin is insoluble in polyester polyol, the primary component in the hardener; consequently the tobramycin remains in the solid phase during the chemical reaction. A loading of 8 wt-% was chosen to approximate the level of tobramycin delivered from the equivalent volume of PMMA cement beads, but higher loading can be achieved if necessary."}, "[4]": {"assay": "In vitro release of BSA-FITC / protein from PUR scaffolds", "assay_type": "physicochemical", "conditions": "added in solution, after 21 days", "procedure": "A scaffold of the present invention was prepared by one-shot reactive liquid molding of HDIt and hardener containing polyester triol and PEG. BSA-FITC was added to the hardener component prior to mixing with HDIt. Considering that proteins incorporate groups with active hydrogens (e.g., hydroxyl groups and amines), there is a concern that the protein will react with the polyisocyanate, resulting in damage to the protein. […] To protect the protein from reacting with the polyisocyanate, BSA-FITC was lyophilized with a varying amount of glucose excipient and then added to the hardener as a powder. […] The glucose dosage plays an important role in the release profile; the presence of 0.5% and 2% glucose increased the total amount released after 21 days and increased the initial burst release. Further increasing the glucose dosage to 5% decreased the total release.\nTo evaluate the effect of encapsulation protein into PLGA particles on the release kinetics from PUR scaffold, small pieces of PUR scaffold incorporated with BSA-FITC powder or PLGA particles encapsulated with BSA-FITC were incubated in a-MEM containing 1% BSA under 37° C. the medium was changed as indicated in FIG. 18. The amount of BSA-FITC was determined by emission fluorescence at 530 nm after excitation at 485 nm."}}, "note": "Where two headings read alike, the source gives them in different places.", "data": [{"compound": "CN[C@H](CC(C)C)C(=O)N[C@H]1C(=O)N[C@@H](CC(N)=O)C(=O)N[C@H]2C(=O)N[C@H]3C(=O)N[C@H](C(=O)N[C@H](C(=O)O)c4cc(O)cc(O)c4-c4cc3ccc4O)[C@H](O)c3ccc(c(Cl)c3)Oc3cc2cc(c3O[C@@H]2O[C@H](CO)[C@@H](O)[C@H](O)[C@H]2O[C@H]2C[C@](C)(N)[C@H](O)[C@H](C)O2)Oc2ccc(cc2Cl)[C@H]1O", "note": "[V-FB, vancomycin free base]", "values": [{"measurement": "duration of vancomycin release above the MIC for S. aureus", "setting": "[1]", "result": "up to 8 weeks"}, {"measurement": "duration of vancomycin release above the MIC for S. aureus", "setting": "[1]; listed as vancomycin", "result": "over 8 weeks"}]}, {"compound": "PDGF-BB: Platelet-derived growth factor-BB", "values": [{"measurement": "protein release", "setting": "[2]; PDGF-BB added to PUR as a powder without the glucose excipient", "result": "negligible protein release"}, {"measurement": "total release of PDGF-BB", "setting": "[2]; ELISA", "result": "around 65%"}, {"measurement": "total release of PDGF-BB", "setting": "[2]; I-125 labeling", "result": "around 85%"}, {"measurement": "decreased activity compared with the positive control", "setting": "MC3T3 cells", "result": 20, "unit": "%"}]}, {"compound": "NC[C@H]1O[C@H](O[C@H]2[C@H](O)[C@@H](O[C@H]3O[C@H](CO)[C@@H](O)[C@H](N)[C@H]3O)[C@H](N)C[C@@H]2N)[C@H](N)C[C@@H]1O", "note": "[tobramycin]", "values": [{"measurement": "minimum bactericidal concentration", "setting": "S. aureus", "result": 16, "unit": "µg/mL"}, {"measurement": "minimum inhibitory concentration", "setting": "S. aureus", "result": "4 to 8", "unit": "µg/mL"}, {"measurement": "solubility in polyester polyol", "setting": "[3]", "result": "insoluble"}]}, {"compound": "BSA-FITC: Bone serum albumin-fluorescein isothiocyanate", "values": [{"measurement": "release of BSA-FITC", "setting": "[4]", "result": "< 20", "unit": "%"}]}]}
